Measurements as given in ChEMBL document CHEMBL1201862, “PubChem BioAssay data set” (2004).
pIC50: −log10 of the molar value. Active and inactive are the calls of the source.

What was measured:
[1] = biological target: T1, Zinc finger protein mex-5 (Caenorhabditis elegans, UniProt Q9XUB2); assay: potency of MEX-5 RNA-binding blockers – biochemical, C. elegans, fluorescence polarization, dose response (AID 1960)
T1 sequence (Q9XUB2 whole entry): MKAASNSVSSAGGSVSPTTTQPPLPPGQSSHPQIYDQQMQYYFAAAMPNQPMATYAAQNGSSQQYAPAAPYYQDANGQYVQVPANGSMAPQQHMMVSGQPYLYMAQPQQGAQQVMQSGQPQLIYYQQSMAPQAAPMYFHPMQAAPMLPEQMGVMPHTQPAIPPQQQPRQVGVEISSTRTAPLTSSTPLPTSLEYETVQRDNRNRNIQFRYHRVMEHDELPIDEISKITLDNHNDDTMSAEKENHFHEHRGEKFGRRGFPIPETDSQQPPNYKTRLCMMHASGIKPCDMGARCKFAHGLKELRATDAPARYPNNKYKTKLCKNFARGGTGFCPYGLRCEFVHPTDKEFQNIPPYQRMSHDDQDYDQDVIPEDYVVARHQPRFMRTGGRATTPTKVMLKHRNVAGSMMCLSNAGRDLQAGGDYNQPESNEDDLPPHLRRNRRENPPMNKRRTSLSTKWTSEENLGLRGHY

[2] = test system: A-375; assay: proliferation inhibition in MITF-low A375 cells – cell-based, cherry-pick samples, set 2, counter-screen for MITF modulator project, dose response (AID 540335); assay type: functional; conditions: Homo sapiens
[3] = biological target: Apoptotic protease-activating factor 1 (Homo sapiens, UniProt O14727); assay type: functional
[4] = biological target: T2, Microphthalmia-associated transcription factor (Homo sapiens, UniProt O75030); assay: reducers of TRPM1 reporter luminescence, concentration series – cell-based, SK-MEL-5, cherry-picked, set 3, MITF inhibitor project, dose response (AID 493073); assay type: functional;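 further: SK-MEL-5 melanoma cells with luciferase driven by the MITF target TRPM1 promoter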
T2 sequence (O75030 whole entry): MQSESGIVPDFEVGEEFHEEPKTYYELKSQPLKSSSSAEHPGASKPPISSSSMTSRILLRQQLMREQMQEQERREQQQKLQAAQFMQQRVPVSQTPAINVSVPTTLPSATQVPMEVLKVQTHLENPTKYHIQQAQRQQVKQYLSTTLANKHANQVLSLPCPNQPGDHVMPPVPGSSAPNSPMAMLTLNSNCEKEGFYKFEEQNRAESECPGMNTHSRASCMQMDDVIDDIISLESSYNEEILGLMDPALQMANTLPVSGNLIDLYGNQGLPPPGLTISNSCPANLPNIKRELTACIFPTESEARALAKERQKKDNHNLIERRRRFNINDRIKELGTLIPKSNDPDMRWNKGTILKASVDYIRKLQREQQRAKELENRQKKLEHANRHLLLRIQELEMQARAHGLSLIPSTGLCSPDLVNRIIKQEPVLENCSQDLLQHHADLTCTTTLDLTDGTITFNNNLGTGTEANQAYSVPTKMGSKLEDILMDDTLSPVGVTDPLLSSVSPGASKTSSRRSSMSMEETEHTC

[5] = biological target: T3, RNA-binding protein pos-1 (Caenorhabditis elegans, UniProt G5EF15); assay: disruptors of C. elegans POS-1 RNA interaction – biochemical, fluorescence polarization, dose response (AID 1964);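 further: purified POS-1 fused to maltose binding protein made in E. coli; potency of compounds blocking POS-1 binding to fluorescent RNA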
T3 sequence (G5EF15 whole entry): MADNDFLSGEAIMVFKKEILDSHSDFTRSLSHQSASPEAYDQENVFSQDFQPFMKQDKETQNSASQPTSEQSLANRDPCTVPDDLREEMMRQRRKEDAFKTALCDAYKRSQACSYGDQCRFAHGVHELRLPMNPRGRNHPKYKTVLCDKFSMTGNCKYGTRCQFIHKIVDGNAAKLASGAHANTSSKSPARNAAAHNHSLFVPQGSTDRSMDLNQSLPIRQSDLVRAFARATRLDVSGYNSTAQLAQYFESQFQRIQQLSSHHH

[6] = biological target: Beta-2 adrenergic receptor (Homo sapiens, UniProt P07550); assay: ADRB2 activation measured by internalization – cell-based, FAP fluorogen, flow cytometry, cherry pick 1, dose response (AID 588763); assay type: functional
[7] = biological target: T4, Beta Lactamase (Pseudomonas aeruginosa, UniProt Q932Y6); assay: BLA reporter interference, concentration series – BLA reporter cells, FRET fluorescence, artefact control for TLR9-MyD88 binding inhibitor project, dose response (AID 588341); assay type: cell-based;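 further: cell based assay in CHO-K1 cells stably expressing beta-lactamase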
[8] = biological target: T5, Kappa-type opioid receptor (Homo sapiens, UniProt P41145); assay type: functional
[9] = Fluorescence-based cell-based high throughput dose response assay for inhibitors of the interaction of nucleotide-binding oligomerization domain containing 2 (NOD2) and the receptor-interacting serine-threonine kinase 2 (RIPK2).; assay type: functional; conditions: Homo sapiens
[10] = test system: CHO; assay: CHO cell viability loss, potency – luminescence, cytotoxicity control for TLR9-MyD88 binding inhibitor project, dose response (AID 588339); assay type: functional, cell-based, hamster; conditions: Cricetulus griseus;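 further: CHO cells stably coexpressing TLR9 and MyD88 fusions from primary screen; compound exposure lasted 48 hours before viability readout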
[11] = biological target: T4, Beta Lactamase; assay: BLA reporter interference, concentration series – BLA reporter cells, FRET fluorescence, artefact control for NOD2-RIPK2 interaction inhibitor project, dose response (AID 651552); assay type: functional, cell-based
[12] = biological target: T5, Kappa-type opioid receptor; assay type: functional; remark: listed apart in the source
[13] = viability loss in HeLa cells – cytotoxicity control for MgcRacGAP inhibitor project, dose response (AID 624300); assay type: functional
[14] = biological target: T6, Rac GTPase-activating protein 1 (Homo sapiens, UniProt Q9H0H5); assay: blockers of MgcRacGAP-driven Rac1 GTP hydrolysis – biochemical, ADP Hunter fluorescence, primary and confirmatory, confirmation (AID 624330); assay type: functional
T6 sequence (Q9H0H5 whole entry): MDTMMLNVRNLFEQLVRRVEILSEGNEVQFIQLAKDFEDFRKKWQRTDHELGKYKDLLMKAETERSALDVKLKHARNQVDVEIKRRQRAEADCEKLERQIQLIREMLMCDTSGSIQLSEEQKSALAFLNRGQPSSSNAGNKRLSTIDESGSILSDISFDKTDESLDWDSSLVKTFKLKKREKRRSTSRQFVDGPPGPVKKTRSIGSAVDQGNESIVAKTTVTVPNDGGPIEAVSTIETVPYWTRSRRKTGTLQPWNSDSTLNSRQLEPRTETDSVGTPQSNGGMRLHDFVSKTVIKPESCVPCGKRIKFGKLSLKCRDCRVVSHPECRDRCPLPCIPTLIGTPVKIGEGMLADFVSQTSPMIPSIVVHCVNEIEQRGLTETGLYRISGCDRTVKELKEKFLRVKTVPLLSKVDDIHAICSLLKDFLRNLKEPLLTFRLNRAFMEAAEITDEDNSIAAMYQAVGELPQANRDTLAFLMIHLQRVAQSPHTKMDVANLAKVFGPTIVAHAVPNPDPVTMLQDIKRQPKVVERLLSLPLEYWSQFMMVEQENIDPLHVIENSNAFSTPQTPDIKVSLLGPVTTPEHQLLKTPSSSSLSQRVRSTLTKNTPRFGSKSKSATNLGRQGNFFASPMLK

[15] = biological target: Large T antigen (Simian virus 40, UniProt P03070); assay type: functional, Betapolyomavirus macacae;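 further: Confirmatory-stage PubChem screen for compounds that inhibit SV40 T antigen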
[16] = biological target: Beta-galactosidase (Escherichia coli, UniProt Q8VNN2); assay type: functional
[17] = test system: INS1; assay: INS-1E survival protection against cytokine death – cell-based, luminescence, retest, dose response (AID 449756); assay type: functional; conditions: Rattus norvegicus;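 further: cell death triggered by IL-1 beta plus TNF-alpha plus IFN-gamma mixture; protective hits raise ATP signal compared with cytokine alone wells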
[18] = luciferase inhibitors in kinase-free ADP detection – biochemical, luminescence, cherry-pick, set 02, artefact control for Dyrk1A inhibitor project, dose response (AID 588348)
[19] = biological target: HSP90 (Plasmodium falciparum 3D7, UniProt Q8IL32); assay type: functional, organism-based
[20] = test system: INS1; assay: beta-cell survival under cytokine stress – INS-1E, ATP luminescence, dry powder, dose response (AID 488844); assay type: functional, cell-based; conditions: Rattus norvegicus
[21] = test system: INS1; assay: suppression of NO production in INS-1E cells – cell-based, Griess absorbance, dry powder, set 2, dose response (AID 488868); assay type: functional; conditions: Rattus norvegicus
[22] = test system: INS1; assay: INS-1E mitochondrial potential rescue under cytokines – cell-based, JC-1 fluorescence ratio, dry powder, dose response (AID 488931); assay type: functional; conditions: Rattus norvegicus
[23] = test system: INS1; assay: INS-1E mitochondrial potential loss inhibitors – cell-based, JC-1 fluorescence, dry powder, set 2, dose response (AID 488867); assay type: functional; conditions: Rattus norvegicus
[24] = test system: Jurkat; assay: SAR Analysis of small molecule inhibitors of T-cell specific antigen receptor-induced NF-kB activation in a Jurkat cell line using a luminescence assay - Set 2. [Related pubchem assays (depositor defined):AID435003, AID435012, AID465]; assay type: functional, cell-based; conditions: Homo sapiens
[25] = test system: HEK293; assay: HEK293T cell viability loss, resazurin readout – resazurin fluorescence, cytotoxicity control for NF-kB activator project, SAR follow-up (AID 493251); assay type: functional, cell-based; conditions: Homo sapiens
[26] = test system: HEK293; assay: SAR Analysis of small molecule inhibitors of T-cell specific antigen receptor-induced NF-kB activation in a HEK-293T cell line using a luminescence assay - Set 2. [Related pubchem assays (depositor defined):AID435003, AID435012, AID489026]; assay type: functional, cell-based; conditions: Homo sapiens
[27] = biological target: ATP-dependent molecular chaperone HSP82 (Candida albicans (strain WO-1) (Yeast), UniProt C4YTQ8); assay: steroid-induced GRE reporter decrease in yeast – S. cerevisiae, luminescence, Hsp90 inhibitor project, dose response (AID 2400); assay type: functional, cell-based;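 further: beta-galactosidase luminescence from glucocorticoid response element reporter as proxy for Hsp90 function; inhibitor potency where signal loss means Hsp90 inhibition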
[28] = Trypanosoma cruzi growth suppression in host cells – NIH3T3 host cells, beta-gal luminescence, confirmation (AID 2044); assay type: functional, cell-based;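 further: intracellular parasites grown in NIH/3T3 mouse fibroblasts as host cells; luminescent beta-galactosidase reporter signal from transgenic T. cruzi replicating inside host cells; inhibitors lower the luminescence signal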
[29] = NIH-3T3 fibroblast cytotoxicity, dose response, cytotoxicity control, cell-based, fluorescence, Alamar Blue, secondary assay (AID 2327); assay type: functional;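 further: NIH-3T3 mouse fibroblasts cultured with fluconazole at 8 µg/mL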
[30] = fluconazole-exposed Candida albicans growth modulators – fluorescence, retest, confirmation (AID 2467); assay type: functional, cell-based
[31] = NIH3T3 cell viability loss – ATP luminescence, mouse fibroblasts, counter-screen, dose response (AID 2010); assay type: functional, cell-based;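 further: cells exposed to compound for about 90 hours before reading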
[32] = biological target: Serine/threonine-protein phosphatase (Candida dubliniensis (strain CD36 / CBS 7987 / NCPF 3949 / NRRLY-17841) (Yeast), UniProt B9W6M3); assay: blockers of CaCl2-induced CDRE-lacZ signaling – S. cerevisiae, luminescence, secondary, dose response (AID 2388); assay type: functional, cell-based;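 further: yeast reporter cells carrying a calcineurin-responsive lacZ construct stimulated with calcium chloride; luminescent beta-galactosidase reporter signal in whole cells rather than isolated phosphatase activity; potency for inhibition where a drop in reporter signal means calcineurin blockade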
Chain of Serine/threonine-protein phosphatase (B9W6M3 whole entry): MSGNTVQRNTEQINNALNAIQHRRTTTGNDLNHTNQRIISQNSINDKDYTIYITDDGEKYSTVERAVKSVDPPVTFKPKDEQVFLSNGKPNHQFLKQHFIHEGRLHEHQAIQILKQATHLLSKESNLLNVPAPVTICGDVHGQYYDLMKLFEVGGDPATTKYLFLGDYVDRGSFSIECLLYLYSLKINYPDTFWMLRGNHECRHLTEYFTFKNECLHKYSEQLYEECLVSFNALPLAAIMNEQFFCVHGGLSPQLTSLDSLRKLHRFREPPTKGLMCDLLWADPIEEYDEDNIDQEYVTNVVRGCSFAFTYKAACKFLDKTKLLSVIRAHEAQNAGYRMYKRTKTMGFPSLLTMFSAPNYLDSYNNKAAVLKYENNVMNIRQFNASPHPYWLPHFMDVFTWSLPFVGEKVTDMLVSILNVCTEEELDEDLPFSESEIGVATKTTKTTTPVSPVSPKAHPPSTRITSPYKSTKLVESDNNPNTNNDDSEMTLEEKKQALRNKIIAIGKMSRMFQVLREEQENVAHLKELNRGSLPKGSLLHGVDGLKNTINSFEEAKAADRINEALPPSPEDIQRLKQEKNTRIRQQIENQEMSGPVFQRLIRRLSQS

T5 sequence (P41145 whole entry, the tested form may be a part): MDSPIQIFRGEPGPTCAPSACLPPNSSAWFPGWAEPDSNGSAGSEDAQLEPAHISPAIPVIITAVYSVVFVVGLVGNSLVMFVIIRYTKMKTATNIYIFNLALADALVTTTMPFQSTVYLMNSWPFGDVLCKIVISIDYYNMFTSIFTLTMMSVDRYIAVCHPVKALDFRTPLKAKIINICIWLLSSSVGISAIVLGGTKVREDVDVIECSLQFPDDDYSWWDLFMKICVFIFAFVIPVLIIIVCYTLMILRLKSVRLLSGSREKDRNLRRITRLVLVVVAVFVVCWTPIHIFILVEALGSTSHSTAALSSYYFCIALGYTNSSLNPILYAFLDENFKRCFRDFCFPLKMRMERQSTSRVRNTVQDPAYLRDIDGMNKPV
T4 sequence (Q932Y6 whole entry): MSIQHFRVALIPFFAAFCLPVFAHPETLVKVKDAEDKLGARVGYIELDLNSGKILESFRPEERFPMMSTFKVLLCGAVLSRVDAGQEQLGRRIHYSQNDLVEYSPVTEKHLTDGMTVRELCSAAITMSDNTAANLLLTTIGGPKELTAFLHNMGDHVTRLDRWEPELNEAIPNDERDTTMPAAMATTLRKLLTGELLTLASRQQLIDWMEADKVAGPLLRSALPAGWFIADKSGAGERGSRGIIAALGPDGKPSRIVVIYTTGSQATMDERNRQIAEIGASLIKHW
Chain of ATP-dependent molecular chaperone HSP82 (C4YTQ8 whole entry): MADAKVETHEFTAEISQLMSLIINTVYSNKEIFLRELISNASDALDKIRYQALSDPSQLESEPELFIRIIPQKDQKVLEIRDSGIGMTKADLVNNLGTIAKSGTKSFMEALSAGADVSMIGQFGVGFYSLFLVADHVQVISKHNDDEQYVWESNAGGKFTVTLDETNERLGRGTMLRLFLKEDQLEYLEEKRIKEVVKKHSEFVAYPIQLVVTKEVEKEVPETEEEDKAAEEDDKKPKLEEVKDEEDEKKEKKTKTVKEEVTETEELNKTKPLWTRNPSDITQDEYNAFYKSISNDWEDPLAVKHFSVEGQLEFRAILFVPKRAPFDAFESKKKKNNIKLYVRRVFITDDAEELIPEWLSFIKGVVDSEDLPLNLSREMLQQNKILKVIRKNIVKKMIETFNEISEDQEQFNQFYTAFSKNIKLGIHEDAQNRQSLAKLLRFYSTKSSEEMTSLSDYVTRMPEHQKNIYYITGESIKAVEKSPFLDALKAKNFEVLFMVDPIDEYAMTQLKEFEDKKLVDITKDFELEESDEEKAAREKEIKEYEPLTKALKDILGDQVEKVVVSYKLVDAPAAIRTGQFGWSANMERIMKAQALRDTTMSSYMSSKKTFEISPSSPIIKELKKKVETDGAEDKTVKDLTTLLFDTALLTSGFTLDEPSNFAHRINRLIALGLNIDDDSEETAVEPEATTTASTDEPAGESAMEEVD
Chain of Beta-galactosidase (Q8VNN2 whole entry): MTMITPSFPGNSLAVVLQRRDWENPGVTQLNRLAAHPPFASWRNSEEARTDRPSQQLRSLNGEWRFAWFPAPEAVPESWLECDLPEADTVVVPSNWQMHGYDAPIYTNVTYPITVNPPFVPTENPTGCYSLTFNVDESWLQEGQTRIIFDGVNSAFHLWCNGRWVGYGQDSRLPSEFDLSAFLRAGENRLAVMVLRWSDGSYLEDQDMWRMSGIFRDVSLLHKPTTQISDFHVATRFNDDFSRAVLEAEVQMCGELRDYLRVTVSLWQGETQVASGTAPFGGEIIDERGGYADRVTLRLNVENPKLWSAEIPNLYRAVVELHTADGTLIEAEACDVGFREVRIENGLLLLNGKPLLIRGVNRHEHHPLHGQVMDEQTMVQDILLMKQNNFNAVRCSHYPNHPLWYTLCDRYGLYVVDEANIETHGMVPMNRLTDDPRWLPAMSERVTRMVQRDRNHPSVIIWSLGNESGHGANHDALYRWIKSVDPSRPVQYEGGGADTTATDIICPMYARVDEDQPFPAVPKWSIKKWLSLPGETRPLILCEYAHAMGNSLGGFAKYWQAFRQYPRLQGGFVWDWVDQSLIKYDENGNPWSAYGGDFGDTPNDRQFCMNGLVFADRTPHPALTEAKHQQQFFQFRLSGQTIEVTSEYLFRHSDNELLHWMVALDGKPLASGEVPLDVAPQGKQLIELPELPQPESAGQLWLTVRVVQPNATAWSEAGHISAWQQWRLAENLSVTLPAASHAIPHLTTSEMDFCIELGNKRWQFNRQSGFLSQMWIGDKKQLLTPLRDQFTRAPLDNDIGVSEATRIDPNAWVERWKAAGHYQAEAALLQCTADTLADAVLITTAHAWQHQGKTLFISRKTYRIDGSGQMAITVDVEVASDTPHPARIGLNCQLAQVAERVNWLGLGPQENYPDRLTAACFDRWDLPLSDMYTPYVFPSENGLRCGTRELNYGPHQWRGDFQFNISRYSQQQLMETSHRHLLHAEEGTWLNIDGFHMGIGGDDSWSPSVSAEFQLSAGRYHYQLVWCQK
Chain of Beta-2 adrenergic receptor (P07550 whole entry): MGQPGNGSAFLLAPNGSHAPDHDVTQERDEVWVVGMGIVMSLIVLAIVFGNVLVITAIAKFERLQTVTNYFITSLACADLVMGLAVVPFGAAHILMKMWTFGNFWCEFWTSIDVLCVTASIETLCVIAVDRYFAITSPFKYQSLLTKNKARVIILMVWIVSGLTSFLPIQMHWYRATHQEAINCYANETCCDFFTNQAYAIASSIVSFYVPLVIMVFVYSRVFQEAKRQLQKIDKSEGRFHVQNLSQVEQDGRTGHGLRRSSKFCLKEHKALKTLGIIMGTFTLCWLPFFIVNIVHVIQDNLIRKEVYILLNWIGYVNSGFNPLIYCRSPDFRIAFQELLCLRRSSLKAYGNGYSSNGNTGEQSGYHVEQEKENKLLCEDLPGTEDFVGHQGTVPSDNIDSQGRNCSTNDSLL
Chain of HSP90 (Q8IL32 whole entry): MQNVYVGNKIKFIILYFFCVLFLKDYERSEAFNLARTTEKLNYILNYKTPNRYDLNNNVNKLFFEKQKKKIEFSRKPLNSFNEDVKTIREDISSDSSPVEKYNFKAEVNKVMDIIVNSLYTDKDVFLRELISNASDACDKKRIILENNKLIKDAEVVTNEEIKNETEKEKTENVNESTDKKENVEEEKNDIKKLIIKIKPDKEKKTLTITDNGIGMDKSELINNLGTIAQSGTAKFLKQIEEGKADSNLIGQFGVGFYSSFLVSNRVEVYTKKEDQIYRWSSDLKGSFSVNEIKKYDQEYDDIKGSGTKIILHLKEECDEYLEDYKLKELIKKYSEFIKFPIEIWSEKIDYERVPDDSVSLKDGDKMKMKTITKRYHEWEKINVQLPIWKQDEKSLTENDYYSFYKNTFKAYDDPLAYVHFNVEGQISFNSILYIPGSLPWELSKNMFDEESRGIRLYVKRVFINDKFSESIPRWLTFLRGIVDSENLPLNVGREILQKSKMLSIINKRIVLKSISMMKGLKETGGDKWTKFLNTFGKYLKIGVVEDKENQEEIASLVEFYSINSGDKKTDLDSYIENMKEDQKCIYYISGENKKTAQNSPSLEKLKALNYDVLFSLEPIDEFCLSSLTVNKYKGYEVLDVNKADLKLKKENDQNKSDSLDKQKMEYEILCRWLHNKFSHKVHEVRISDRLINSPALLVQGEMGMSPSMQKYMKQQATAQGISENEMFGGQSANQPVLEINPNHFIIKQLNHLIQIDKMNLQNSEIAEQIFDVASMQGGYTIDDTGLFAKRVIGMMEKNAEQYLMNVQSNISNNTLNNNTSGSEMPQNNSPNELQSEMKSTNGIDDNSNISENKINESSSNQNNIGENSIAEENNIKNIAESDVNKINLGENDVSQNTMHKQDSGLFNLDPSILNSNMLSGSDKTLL

## Cc1ccc(C(=O)N/C(=C\c2ccc(-c3ccccc3[N+](=O)[O-])o2)C(=O)NCCCN(C)C)cc1
[1]
  EC50: 18.6 µM (active)
[2]
  AC50: 33.4 µM (active)
[3]
  IC50: 70.1 µM (active)
[4]
  AC50: 3.28 µM (active)
[5]
  EC50: > 300 µM (inconclusive)

## CN(c1ccccc1)S(=O)(=O)c1cccc(C(=O)Nc2cccc(C(=O)NC3CC3)c2)c1
[6]
  EC50: 0.575 µM (active)

## N#CC(C#N)=C1C=CC=CN1/C(=C\c1ccco1)C(=O)c1ccc(Br)cc1
[7]
  IC50: 13.2 µM (inactive)
[8]
  IC50: 4.51 µM (active)
[9]
  IC50: 0.895 µM (active)
[10]
  IC50: 1.56 µM (active)
[4]
  AC50: 5.59 µM (active)
[11]
  IC50: 44.7 µM (inactive)
[12]
  pIC50: 4.81
[13]
  CC50: 100 µM (active)
[14]
  IC50: 88.7 µM (active)
[15]
  IC50: 15.5 µM (active)
[16]
  EC50: > 31.5 µM (inactive)
[17]
  AC50: 7.3 µM (active)

## CC(=O)Nc1cccc(C(=O)OCC(=O)c2ccc3c(c2)OCO3)c1
[18]
  AC50: 50.2 µM (active)

## O=C(COc1ccc(Cl)cc1)NC1=NN(c2ccccc2)C(=O)C1
[19]
  AC50: 32.5 µM (active)

## Cc1ccc(S(=O)(=O)N(C)C[C@@H]2Oc3c(NC(=O)Nc4cccc5ccccc45)cccc3C(=O)N([C@H](C)CO)C[C@H]2C)cc1
[20]
  AC50: > 235 µM (inactive)
[21]
  AC50: 30.3 µM (active)
[22]
  AC50: 61.1 µM (active)

## COc1ccc(S(=O)(=O)N(C)C[C@@H]2Oc3c(NC(=O)Nc4ccc(F)cc4)cccc3C(=O)N([C@@H](C)CO)C[C@H]2C)cc1
[23]
  AC50: 134 µM (active)
[20]
  AC50: 22.8 µM (active)

## COc1cc(NC(=O)c2ccc3c(c2)OCO3)ccc1NC(=O)c1cc2ccccc2o1
[24]
  IC50: > 79 µM (inactive)
[25]
  IC50: > 80 µM (inactive)
[26]
  IC50: > 80 µM (inactive)

## CCOc1ccccc1NC(=O)C(=O)N/N=C/c1cc(Br)ccc1O
[27]
  EC50: > 160 µM (inactive)
[28]
  EC50: 1.02 µM (active)
[29]
  EC50: > 160 µM (inactive)
[4]
  AC50: 3.34 µM (active)
[30]
  EC50: 0.358 µM (active)
[31]
  EC50: > 60 µM (not active)
[32]
  EC50: > 180 µM (inactive)
[17]
  AC50: 1.04 µM (active)
